Structures can show the parent of a compound that is named as a salt. Where two headings read alike, the source gives them in different places.
Tests used:
[1] = Decomposition temperature by TGA; format: physicochemical; settings: for Decomposition temperature: TGA, onset of the first derivative of sample weight loss v. temperature; for decomposes at: as stated in the description of the embodiments
Description: The LOD and decomposition temperature of the salts of the invention were determined by TGA, and the melting point was determined by DSC.

[2] = Hygroscopicity by TGA after one day at ambient temperature and 93% relative humidity; format: physicochemical; settings: ambient temperature
Description: The hygroscopicity of the salts of the invention was determined by TGA after one day at ambient temperature and 93% relative humidity.

[3] = pH 3.0 buffer, ambient temperature, at least 20 hours
Description: The solubility of the salts of the invention was determined in pH 6.8, pH 3.0 and pH 1.0 buffers by suspending 1-5 mg of each salt in 10 mL of corresponding aqueous solution. The samples were allowed to equilibrate at ambient temperature for at least 20 hours for pH 6.8 and 3.0 or about 5 hours for pH 1.0. The supernatant was filtered and used for the solubility determination by UV-VIS spectroscopy.

[4] = pH of 1% solution or suspension in water; format: physicochemical; settings: 1% in water; listed as Free base form B
[5] = Solid state stability: heat, humidity, xenon light (Table 15); format: physicochemical
[6] = pKa values of the free base; format: physicochemical; settings: two values
Description: In a second step of the present inventive method, the 4-methyl-N-[3-(4-methyl-imidazol-1-yl)-5-trifluoromethyl-phenyl]-3-(4-pyridin-3-yl-pyrimidin-2-ylamino)-benzamide free base is treated with an appropriate acid of the formula HB. […] Suitable acids include, without limitation, inorganic acids such as hydrochloric acid, phosphoric acid, sulfuric acid, and sulfonic acid and organic acids such as methane sulfonic acid, ethane sulfonic acid, benzene sulfonic acid, p-toluene sulfonic acid, citric acid, fumaric acid, gentisic acid, malonic acid, maleic acid, and tartaric acid.

[7] = Stability of solutions or suspensions (Table 15); format: physicochemical
[8] = Intrinsic Dissolution Rate (rotating disk method); format: physicochemical; settings: 37° C., 200 rpm
Description: Intrinsic Dissolution Rate (IDR): Dissolution rate measurements were performed at 37° C. using the rotating disk method (VanKell Instrument). A single rotation speed of 200 rpm was used. For IDR in 0.1 N HCl, an 800 mL volume, and for IDE in water, a 200 mL volume were used. The solution was continuously pumped through a UV measuring cell and recycled to the dissolution vessel.

[9] = listed as Control - free base form B
[10] = Solid state, 1 week 80° C., 75% relative humidity, 30% in mixture 1
[11] = Solid state, 1 week 80° C., 75% relative humidity, 30% in mixture 2
[12] = Solid state, 1 week 80° C., 75% relative humidity, Bulk (HPLC)
[13] = Solid state, 1 week 80° C., tight container, 30% in mixture 1
[14] = Solid state, 1 week 80° C., tight container, 30% in mixture 2
[15] = Solid state, 1 week 80° C., tight container, Bulk (HPLC)
[16] = Xenon light (approximately 200 kLuxh), Bulk (HPLC)
[17] = 0.1% solutions or suspensions, 1 week at 80° C., Acetonitrile
[18] = 0.1% solutions or suspensions, 1 week at 80° C., Ethanol
[19] = 0.1% solutions or suspensions, 1 week at 80° C., Methanol
[20] = 0.1% solutions or suspensions, 1 week at 80° C., Water (pH measured: 4.74; pH measured for HCl salt: 4.22)
[21] = 0.1% solutions or suspensions, 1 week at 80° C., pH 1 (pH measured: 1.26)
[22] = 0.1% solutions or suspensions, 1 week at 80° C., pH 2 (pH measured: 2.00)
[23] = 0.1% solutions or suspensions, 1 week at 80° C., pH 3 (pH measured: 2.94)
[24] = 0.1% solutions or suspensions, 1 week at 80° C., pH 5 (pH measured: 5.01)
[25] = 0.1% solutions or suspensions, 1 week at 80° C., pH 7 (pH measured: 6.02)
[26] = 0.1% solutions or suspensions, 1 week at 80° C., pH 9 (pH measured: 8.92)
[27] = 0.1% solutions or suspensions, 1 week at 80° C., pH 11 (pH measured: 10.86)
[28] = 0.1% solutions or suspensions, PH 1, 1 week @ 50° C.
[29] = 2% solutions or suspensions, 1 day at room temperature, 0.5% CMC
[30] = 2% solutions or suspensions, 1 day at room temperature, 0.5% HPMC cellulose 4000
[31] = 2% solutions or suspensions, 1 day at room temperature, 0.8% Tween 80
[32] = 5% solutions in DMSO, 1 day at room temperature, 1:100 dilution in pH 6.8 buffer

## Cc1cn(-c2cc(NC(=O)c3ccc(C)c(Nc4nccc(-c5cccnc5)n4)c3)cc(C(F)(F)F)c2)cn1 [Benzene sulfonate, 4-methyl-N-[3-(4-methyl-imidazol-1-yl)-5-trifluoromethyl-phenyl]-3-(4-pyridin-3-yl-pyrimidin-2-ylamino)-benzamide mono benzyl sulfonate salt]
[1]
  Decomposition temperature: 260 °C
[1]; listed as benzene sulfonate salt
  decomposes at: about 260 °C
[2]
  % moisture gain: 0.11%

## CCS(=O)(=O)O.Cc1cn(-c2cc(NC(=O)c3ccc(C)c(Nc4nccc(-c5cccnc5)n4)c3)cc(C(F)(F)F)c2)cn1 [Ethane sulfonate, ethane sulfonate salt of 4-methyl-N-[3-(4-methyl-imidazol-1-yl)-5-trifluoromethyl-phenyl]-3-(4-pyridin-3-yl-pyrimidin-2-ylamino)-benzamide]
[3]
  Solubility at pH 3.0: 2.8 μg/mL
[1]
  Decomposition temperature: 220 °C
  decomposes at: about 220 °C
[2]
  % moisture gain: 1.11%

## Cc1cn(-c2cc(NC(=O)c3ccc(C)c(Nc4nccc(-c5cccnc5)n4)c3)cc(C(F)(F)F)c2)cn1 [Free base (form B), 4-methyl-N-[3-(4-methyl-imidazol-1-yl)-5-trifluoromethyl-phenyl]-3-(4-pyridin-3-yl-pyrimidin-2-ylamino)-benzamide]
[4]
  pH of 1% solution or suspension in water: 7.99
[3]; [9]
  Solubility at pH 3.0: 2.8 μg/mL
[5]; Solid state, 1 week 80° C., 75% relative humidity
  Bulk (XRPD): No change
[5]; [10]
  Assay: 99.38
  Assay [% area]: bracketed % area: 100.00 % area
[5]; [11]
  Assay: 89.37
  Assay [% area]: bracketed % area: 96.02 % area
[5]; [12]
  Assay: 99.97
  Assay [% area]: bracketed % area: 100.00 % area
[5]; Solid state, 1 week 80° C., tight container
  Bulk (XRPD): No change
[5]; [13]
  Assay: 100.11
  Assay [% area]: bracketed % area: 100.00 % area
[5]; [14]
  Assay: 94.28
  Assay [% area]: bracketed % area: 97.75 % area
[5]; [15]
  Assay: 99.77
  Assay [% area]: bracketed % area: 100.00 % area
[5]; Xenon light (approximately 200 kLuxh)
  Bulk (XRPD): No change
[5]; [16]
  Assay: 96.03
  Assay [% area]: bracketed % area: 100.00 % area
[2]; [9]
  % moisture gain: 0.08%
[6]
  pKa: 5.1
[7]; [17]
  Appearance: A*
  Assay: 100.16
  Assay [% area]: bracketed % area: 100.00 % area
[7]; [18]
  Appearance: A*
  Assay: 99.85
  Assay [% area]: bracketed % area: 99.96 % area
[7]; [19]
  Appearance: A*
  Assay: 98.04
  Assay [% area]: bracketed % area: 98.90 % area
[7]; [20]
  Appearance: A↓
  Assay: 101.93
  Assay [% area]: bracketed % area: 100.00 % area
[7]; [21]
  Appearance: A*
  Assay: 50.22
  Assay [% area]: bracketed % area: 45.31 % area
[7]; [22]
  Appearance: B↓
  Assay: 96.00
  Assay [% area]: bracketed % area: 94.86 % area
[7]; [23]
  Appearance: A↓
  Assay: 102.19
  Assay [% area]: bracketed % area: 100.00 % area
[7]; [24]
  Appearance: A↓
  Assay: 100.80
  Assay [% area]: bracketed % area: 100.00 % area
[7]; [25]
  Appearance: A↓
  Assay: 100.14
  Assay [% area]: bracketed % area: 100.00 % area
[7]; [26]
  Appearance: A↓
  Assay: 99.19
  Assay [% area]: bracketed % area: 100.00 % area
[7]; [27]
  Appearance: A↓
  Assay: 100.50
  Assay [% area]: bracketed % area: 100.00 % area
[7]; [28]
  Appearance: A*
  Assay: 94.01
  Assay [% area]: bracketed % area: 93.44 % area
[7]; [29]
  Appearance: A↓
  Assay: 98.28
  Assay [% area]: bracketed % area: 100.00 % area
[7]; [30]
  Appearance: A↓
  Assay: 98.27
  Assay [% area]: bracketed % area: 100,00 % area
[7]; [31]
  Appearance: A↓
  Assay: 98.78
  Assay [% area]: bracketed % area: 100.00 % area
[7]; [32]
  Appearance: A↓
  Assay: 96.98
  Assay [% area]: bracketed % area: 100.00 % area
[7]; Unstressed
  Assay: 100.99
  Assay [% area]: bracketed % area: 100.00 % area
[8]; Water, listed as Free base form B
  Intrinsic dissolution rate: 0.0013 mg min^−1 cm^−2
[8]; pH 1 (0.1N HCl)
  Intrinsic dissolution rate: 0.17 mg min^−1 cm^−2

## Cc1cn(-c2cc(NC(=O)c3ccc(C)c(Nc4nccc(-c5cccnc5)n4)c3)cc(C(F)(F)F)c2)cn1 [Methane sulfonate, 4-methyl-N-[3-(4-methyl-imidazol-1-yl)-5-trifluoromethyl-phenyl]-3-(4-pyridin-3-yl-pyrimidin-2-ylamino)-benzamide mesylate salt]
[3]; listed as Methane sulfonate salt, mesylate salt
  Solubility at pH 3.0: 5.2 μg/mL
[1]; mesylate salt
  Decomposition temperature: 260 °C
[1]; listed as methane sulfonate (mesylate) salt, mesylate salt
  decomposes at: about 260 °C
[2]; mesylate salt
  % moisture gain: 0.22%

## Cc1cn(-c2cc(NC(=O)c3ccc(C)c(Nc4nccc(-c5cccnc5)n4)c3)cc(C(F)(F)F)c2)cn1 [Monophosphate, 4-methyl-N-[3-(4-methyl-imidazol-1-yl)-5-trifluoromethyl-phenyl]-3-(4-pyridin-3-yl-pyrimidin-2-ylamino)-benzamide monophosphate salt]
[1]; monophosphate salt
  Decomposition temperature: 212 °C
  decomposes at: about 212 °C
[2]; monophosphate salt
  % moisture gain: 1.33%

## Cc1cn(-c2cc(NC(=O)c3ccc(C)c(Nc4nccc(-c5cccnc5)n4)c3)cc(C(F)(F)F)c2)cn1.O=S(=O)(O)O [Sulfate (form B), sulfate salt of 4-methyl-N-[3-(4-methyl-imidazol-1-yl)-5-trifluoromethyl-phenyl]-3-(4-pyridin-3-yl-pyrimidin-2-ylamino)-benzamide]
[3]
  Solubility at pH 3.0: 6.5 μg/mL
[1]
  Decomposition temperature: 201 °C
  decomposes at: about 206 °C
[2]
  % moisture gain: 0.22%

## Cc1cn(-c2cc(NC(=O)c3ccc(C)c(Nc4nccc(-c5cccnc5)n4)c3)cc(C(F)(F)F)c2)cn1.O=P(O)(O)O.O=P(O)(O)O [diphosphate salt, diphosphate salt of 4-methyl-N-[3-(4-methyl-imidazol-1-yl)-5-trifluoromethyl-phenyl]-3-(4-pyridin-3-yl-pyrimidin-2-ylamino)-benzamide]
[1]
  decomposes at: about 210 °C

## Cc1cn(-c2cc(NC(=O)c3ccc(C)c(Nc4nccc(-c5cccnc5)n4)c3)cc(C(F)(F)F)c2)cn1 [p-Toluene sulfonate, 4-methyl-N-[3-(4-methyl-imidazol-1-yl)-5-trifluoromethyl-phenyl]-3-(4-pyridin-3-yl-pyrimidin-2-ylamino)-benzamide p-toluene sulfonate salt]
[1]
  Decomposition temperature: 256 °C
  decomposes at: about 256 °C
[2]
  % moisture gain: 1.02%

From patent US8580806B2, “Salts of 4-methyl N-[3-(4-methyl-imidazol-1-yl)-5-trifluoromethyl-phenyl]-3-(4-pyridin-3-yl-pyrimidin-2-ylamino)-benzamide” (Novartis AG, priority 2005, dated 2013)
